# Source: patent US5698516A, “Biologically active vasopressin analogues” (Ferring B.V., priority 1993, dated 1997)
# Where two headings read alike, the source gives them in different places. Numbered stars: 1 amine (or outer) side, 2 acyl side, 3 side chain; on linkers, the order of the positions; unused ones are H or OH. Bridge positions count the residues as written; N and C are the ends. Square brackets hold non-standard residues; d marks the D form. Peptide text beside a SMILES is read from it. Hyp = O=C(O)[C@@H]1C[C@@H](O)CN1; 2Thi = N[C@@H](Cc1cccs1)C(=O)O; d2Thi = N[C@H](Cc1cccs1)C(=O)O; Iva = CC[C@](C)(N)C(=O)O; X1 = O=C(CCC[*:2])[*:1]
# What was measured:
# rat = assay: Antidiuretic activity (ADiv), rat model, urine conductivity after intravenous challenge; format: in vivo; settings: conductivity of urine
# Description: a) Antidiuretic activity (ADiv)
# The antidiuretic activity of the peptides was determined in the well established rat model which is based on continuous measurement of the conductivity of the urine produced by the rat after an intravenous challenge with peptide (J. Medicinal Chem. (1978), 21, 352-356).
# [1] = rat, in vivo
# Description: (§1) b) Gastrointestinal absorption of peptides [(FAD)V ]
# (§2) Absorption of peptides administered in the intestine through a surgically introduced plastic tube (10 cm distal of pylorus) was determined by comparing the antidiuretic effect (area under curve) after intestinal administration with the antidiuretic effect after intravenous adminstration.
# [2] = rat, in vivo; remark: listed apart in the source
# Description: (§3) c) Intranasal absorption of peptides (FAD)in
# (§4) Absorption of peptides administered in a volume of 30 μl in the nasal cavity through a PE20 cannula attached to a Hamilton syringe (introduced 10 mm without surgery), was determined by comparing the antidiuretic effect (area under curve) after intranasal administration with the antidiuretic effect after intravenous administration.
# [3] = in vivo; cited from earlier work
# [4] = Intranasal absorption of peptides (FAD)in, intranasal vs intravenous antidiuretic effect; settings: rat, 30 μl in nasal cavity; antidiuretic effect AUC vs intravenous
# Description: as §3, §4
# [5] = Gastrointestinal absorption of peptides (FAD)V, intestinal vs intravenous antidiuretic effect; settings: rat, intestinal administration via tube 10 cm distal of pylorus; antidiuretic effect AUC vs intravenous
# Description: as §1, §2
SMILES,(FAD)V (gastrointestinal absorption) [1] [%],(FAD)in (intranasal absorption) [2] [%],(FAD)in (intranasal absorption) [4] [%],(FAD)V (gastrointestinal absorption) [5] [%],ADiv (antidiuretic activity) (rat) [IU/μmol],decrease of bioavailability by intranasal route [3]
CC[C@]1(C)NC(=O)[C@H](Cc2cccs2)NC(=O)[C@@H](Cc2ccccc2)NC(=O)CCCSC[C@@H](C(=O)N2C[C@H](O)C[C@H]2C(=O)N[C@H](CCCNC(=N)N)C(=O)NCC(N)=O)NC(=O)[C@H](CC(N)=O)NC1=O [Ex. 1] ([dF][2Thi][Iva]NC[Hyp][dR]G-NH2; linker N-5 via X1),,,42,1.3,,
CC(C)[C@@H]1NC(=O)[C@H](Cc2cccs2)NC(=O)[C@@H](Cc2ccccc2)NC(=O)CCCSC[C@@H](C(=O)N2C[C@H](O)C[C@H]2C(=O)N[C@H](CCCNC(=N)N)C(=O)NCC(N)=O)NC(=O)[C@H](CC(N)=O)NC1=O [Ex. 2] ([dF][2Thi]VNC[Hyp][dR]G-NH2; linker N-5 via X1),,,20,1.2,,
CC[C@]1(C)NC(=O)[C@H](Cc2cccs2)NC(=O)[C@@H](Cc2cccs2)NC(=O)CCCSC[C@@H](C(=O)N2C[C@H](O)C[C@H]2C(=O)N[C@H](CCCNC(=N)N)C(=O)NCC(N)=O)NC(=O)[C@H](CC(N)=O)NC1=O [Ex. 4] ([d2Thi][2Thi][Iva]NC[Hyp][dR]G-NH2; linker N-5 via X1),,,22,2.5,,
CC[C@]1(C)NC(=O)[C@H](Cc2cccs2)NC(=O)[C@@H](Cc2ccc(O)cc2)NC(=O)CCCSC[C@@H](C(=O)N2C[C@H](O)C[C@H]2C(=O)N[C@H](CCCNC(=N)N)C(=O)NCC(N)=O)NC(=O)[C@H](CC(N)=O)NC1=O [Ex. 5] ([dY][2Thi][Iva]NC[Hyp][dR]G-NH2; linker N-5 via X1),,,17,1.4,,
CSCC[C@@H]1NC(=O)[C@@H](Cc2cccs2)NC(=O)CCCSC[C@@H](C(=O)N2C[C@H](O)C[C@H]2C(=O)N[C@H](CCCNC(=N)N)C(=O)NCC(N)=O)NC(=O)[C@H](CC(N)=O)NC(=O)[C@H](C(C)C)NC1=O [Ex. 6] ([d2Thi]MVNC[Hyp][dR]G-NH2; linker N-5 via X1),,,22,1.6,,

# Second part, led by results:
(FAD)V (gastrointestinal absorption) [1] [%],(FAD)in (intranasal absorption) [2] [%],(FAD)in (intranasal absorption) [4] [%],(FAD)V (gastrointestinal absorption) [5] [%],SMILES,ADiv (antidiuretic activity) (rat) [IU/μmol],decrease of bioavailability by intranasal route [3]
0.09,8,,,"NC(=O)CC[C@@H]1NC(=O)[C@H](Cc2ccccc2)NC(=O)[C@H](Cc2ccc(O)cc2)NC(=O)CCSSC[C@@H](C(=O)N2CCC[C@H]2C(=O)N[C@H](CCCN=C(N)N)C(=O)NCC(N)=O)NC(=O)[C@H](CC(N)=O)NC1=O [DDAVP, 1-desamino-8-D-arginine vasopressin]",1100,about 10 times
,,5,0.4,"CC(C)[C@@H]1NC(=O)[C@H](Cc2ccccc2)NC(=O)[C@@H](Cc2ccc(O)cc2)NC(=O)CCCSC[C@@H](C(=O)N2CCC[C@H]2C(=O)N[C@H](CCCNC(=N)N)C(=O)NCC(N)=O)NC(=O)[C@H](CC(N)=O)NC1=O [Ex. 3, reference compound] ([dY]FVNCP[dR]G-NH2; linker N-5 via X1)",,
